From the supplement of paper PMC13380429

Experiments:
HepG2 [1] = test: cell viability relative to DMSO; higher = less toxic; conditions: 72 h
Calu-3 [2] = test: as above; conditions: 72 h
U2OS [3] = test: as above; conditions: 72 h
Caco-2 [4] = test: as above; conditions: 72 h
Vero E6 [5] = test: as above; conditions: 72 h
A549-ACE2 [6] = test: drug-induced phospholipidosis relative to tamoxifen; higher = more phospholipidosis
[7] = test system: A549-ACE2 infected with SARS-CoV-2; test: SARS-CoV-2 infection rate relative to DMSO; higher = more infection; conditions: 24 h
A549-ACE2 [8] = test: phospholipidosis EC50; higher = less potent phospholipidosis inducer
[9] = test system: A549-ACE2 infected with SARS-CoV-2; test: morphology score (similarity to uninfected cells); higher = more like uninfected cells; conditions: 24 h
[10] = test system: A549-ACE2 infected with SARS-CoV-2; test: cell count relative to DMSO; higher = less toxic; conditions: 24 h
HepG2 [11] = test: relative viability EC50 (midpoint between 100% and the lowest measured viability); higher = less toxic; conditions: 72 h
Calu-3 [12] = test: as above; conditions: 72 h
U2OS [13] = test: as above; conditions: 72 h
Caco-2 [14] = test: as above; conditions: 72 h
Vero E6 [15] = test: as above; conditions: 72 h
HepG2 [16] = test: drug sensitivity score (DSS) for viability; higher = more toxic; extreme values may be limits of the assay; conditions: 72 h
Calu-3 [17] = test: as above; conditions: 72 h
U2OS [18] = test: as above; conditions: 72 h
Caco-2 [19] = test: as above; conditions: 72 h
Vero E6 [20] = test: as above; conditions: 72 h

c1cc(CN2CCCCC2)cc(OCCCNc2nc3ccccc3s2)c1 [zolantidine]
Conditions | SARS-CoV-2 infection rate [%] | cell count [%] | cell viability [%] | morphology score | phospholipidosis EC50 [µM]
A549-ACE2 [8], 24 h | – | – | – | – | 7.87
A549-ACE2 [8], 48 h | – | – | – | – | 9.34
A549-ACE2 [8], 72 h | – | – | – | – | 12.4
Caco-2 [4], 1 nM | – | – | 104 | – | –
Caco-2 [4], 10 nM | – | – | 93.4 | – | –
Caco-2 [4], 100 nM | – | – | 99.7 | – | –
Caco-2 [4], 1000 nM | – | – | 96.6 | – | –
Caco-2 [4], 10000 nM | – | – | 86.4 | – | –
Calu-3 [2], 1 nM | – | – | 89.8 | – | –
Calu-3 [2], 10 nM | – | – | 88.3 | – | –
Calu-3 [2], 100 nM | – | – | 108 | – | –
Calu-3 [2], 1000 nM | – | – | 98.1 | – | –
Calu-3 [2], 10000 nM | – | – | 84.9 | – | –
HepG2 [1], 1 nM | – | – | 99.1 | – | –
HepG2 [1], 10 nM | – | – | 91.8 | – | –
HepG2 [1], 100 nM | – | – | 97.6 | – | –
HepG2 [1], 1000 nM | – | – | 102 | – | –
HepG2 [1], 10000 nM | – | – | 89.5 | – | –
U2OS [3], 1 nM | – | – | 101 | – | –
U2OS [3], 10 nM | – | – | 95.9 | – | –
U2OS [3], 100 nM | – | – | 104 | – | –
U2OS [3], 1000 nM | – | – | 97.6 | – | –
U2OS [3], 10000 nM | – | – | 94.6 | – | –
Vero E6 [5], 1 nM | – | – | 90.2 | – | –
Vero E6 [5], 10 nM | – | – | 103 | – | –
Vero E6 [5], 100 nM | – | – | 98.3 | – | –
Vero E6 [5], 1000 nM | – | – | 102 | – | –
Vero E6 [5], 10000 nM | – | – | 94.4 | – | –
[7], 0.3 µM | 98 | – | – | – | –
[7], 3 µM | 50 | – | – | – | –
[7], 10 µM | 20 | – | – | – | –
[7], 30 µM | 12 | – | – | – | –
[9], 0.3 µM | – | – | – | -0.12 | –
[9], 3 µM | – | – | – | 0.76 | –
[9], 10 µM | – | – | – | 0.9 | –
[9], 30 µM | – | – | – | 0.62 | –
[10], 0.3 µM | – | 101 | – | – | –
[10], 3 µM | – | 118 | – | – | –
[10], 10 µM | – | 119 | – | – | –
[10], 30 µM | – | 124 | – | – | –

drug-induced phospholipidosis [%], A549-ACE2 [6]
Conditions | 0.3 µM | 0.833333 µM | 3.33333 µM | 6.66667 µM | 10 µM | 30 µM
24 h | 3.01 | 2.56 | 9.9 | 36.9 | 64.3 | 91.7
48 h | 3.2 | 2.85 | 4.98 | 28.7 | 56.2 | 97.1
72 h | 5.43 | 2.63 | 7.7 | 25.4 | 50.3 | 116

Conditions | drug sensitivity score | relative viability EC50 [µM]
Caco-2 [14] | – | > 10
Caco-2 [19] | 0.2 | –
Calu-3 [12] | – | > 10
Calu-3 [17] | 0.4 | –
HepG2 [11] | – | > 10
HepG2 [16] | 0 | –
U2OS [13] | – | > 10
U2OS [18] | 0 | –
Vero E6 [15] | – | > 10
Vero E6 [20] | 0 | –

COc1cc(C(=O)NC2CCCNC2)cc(OC)c1OC (stereo not drawn) [troxipide]
cell viability [%]
Conditions | Caco-2 [4] | Calu-3 [2] | HepG2 [1] | U2OS [3] | Vero E6 [5]
1 nM | 99 | 97.5 | 103 | 106 | 103
10 nM | 103 | 91.3 | 109 | 96.3 | 109
100 nM | 98.4 | 94 | 97.4 | 102 | 101
1000 nM | 97.4 | 106 | 103 | 98.8 | 102
10000 nM | 99.6 | 97.8 | 104 | 101 | 98.4

Conditions | drug sensitivity score | relative viability EC50 [µM]
Caco-2 [14] | – | > 10
Caco-2 [19] | 0 | –
Calu-3 [12] | – | > 10
Calu-3 [17] | 0 | –
HepG2 [11] | – | > 10
HepG2 [16] | 0 | –
U2OS [13] | – | > 10
U2OS [18] | 0 | –
Vero E6 [15] | – | > 10
Vero E6 [20] | 0 | –

CCc1cc2cc(OC)c(OC)cc2c(Cc2ccccc2)n1 [moxaverine]
Conditions | SARS-CoV-2 infection rate, [7] [%] | cell count, [10] [%] | cell viability, Caco-2 [4] [%] | cell viability, Calu-3 [2] [%] | cell viability, HepG2 [1] [%] | cell viability, U2OS [3] [%] | cell viability, Vero E6 [5] [%] | morphology score, [9]
1 nM | – | – | 89 | 95.7 | 101 | 101 | 96.5 | –
10 nM | – | – | 85.6 | 92.5 | 104 | 95.1 | 95.4 | –
100 nM | – | – | 104 | 95.9 | 98.5 | 99.6 | 92.2 | –
0.3 µM | 104 | 99 | – | – | – | – | – | -0.15
1000 nM | – | – | 90.9 | 96 | 103 | 95.5 | 95 | –
3 µM | 95 | 103 | – | – | – | – | – | 0.3
10000 nM | – | – | 105 | 100 | 106 | 96.8 | 107 | –
10 µM | 71 | 106 | – | – | – | – | – | 0.51
30 µM | 52 | 109 | – | – | – | – | – | 0.66

drug-induced phospholipidosis [%], A549-ACE2 [6]
Conditions | 0.3 µM | 0.833333 µM | 3.33333 µM | 6.66667 µM | 10 µM | 30 µM
24 h | 1.12 | 1.68 | 0.22 | 1.38 | 2.55 | 6.92
48 h | 3.81 | 1.7 | 2.59 | 3.75 | 3.82 | 13.6
72 h | 4.52 | 0.631 | 3.05 | 3.57 | 2.15 | 15.7

Conditions | drug sensitivity score | relative viability EC50 [µM]
Caco-2 [14] | – | > 10
Caco-2 [19] | 0 | –
Calu-3 [12] | – | > 10
Calu-3 [17] | 0 | –
HepG2 [11] | – | > 10
HepG2 [16] | 0 | –
U2OS [13] | – | > 10
U2OS [18] | 0 | –
Vero E6 [15] | – | > 10
Vero E6 [20] | 0 | –
